US8785638B2, “Thieno [2, 3-B] pyridine derivatives as viral replication inhibitors” (Katholieke Universiteit Leuven, priority 2009, dated 2014)

Columns and labels:
[1] = tested on: HIV-1 (IIIB), HIV-1 (NL4.3); assay: microbe, parasite or virus in culture; type: cell-based
Outline: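 MT-4 cells infected with HIV-1 IIIB or NL4.3; protection from virus-induced cytopathic effect measured by MTT reduction, OD 540 nm. EC50 is the dose giving 50% protection; CC50 is the concentration cutting mock-infected absorbance by 50%; SI = CC50/EC50.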

[2] = Cytotoxicity in mock-infected MT-4 cells (MTT); type: cell-based; conditions: human, 50% cytotoxic concentration
Outline: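 MT-4 cells (HTLV-1-transformed T4 line) in RPMI 1640 with 10% FCS, mock-infected alongside HIV-infected cultures. Viability read by in situ MTT reduction, OD 540 nm. CC50 is the compound concentration cutting mock-infected control absorbance by 50%.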

[3] = molecular target: LEDGF/p75-HIV-1 integrase interaction (Human immunodeficiency virus type 1 group M subtype B (isolate HXB2) (HIV-1), UniProt P04585); assay: AlphaScreen assay of LEDGF-integrase interaction inhibition; type: binding; conditions: His6-tagged integrase 300 nM, flag-LEDGF/p75 100 nM; read-out: Alphascreen IC50
Outline: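 Compounds (0.1 up to 100 μM) pre-incubated 30 min at 4° C. with 300 nM His6-integrase in pH 7.4 Tris buffer, then 100 nM flag-LEDGF/p75 added for 1 h at 4° C. Ni-chelate acceptor and anti-flag donor beads (20 μg/ml each) were incubated 1 h at 30° C. before reading AlphaScreen emission.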

For CCOC(C(=O)O)c1c(C)nc2sc3c(c2c1-c1ccc(C)cc1)CCCC3 (stereo not shown) [Cpd 171, 2-[2-Methyl-4-p-tolyl-5,6,7,8-tetrahydro[1]benzothieno[2,3-b]pyridin-3-yl]-2-ethoxyacetic acid], the EC50 ([1]; Human immunodeficiency virus 1, IIIB, MT4, MT-4 cells, 50% protection against HIV-induced cytopathogenic effect, MTT) was 112 nM, the SI ([1]; selectivity index, ratio of CC50 to EC50) was 1166 and the CC50 [2] was 130000 nM. For the same compound, the IC50 [3] was 1210 nM.
